Source: patent publication US20070141141A1, “Pharmaceutical composition” (ASTRAZENECA AB, priority 2003, published 2007)

Legend:
[1] = pH 6.5 dissolution test; format: physicochemical; details: for % Agent in solution after 5 minutes in pH 6.5 medium / % Agent in solution after 30 minutes in pH 6.5 medium / % Agent in solution after 60 minutes in pH 6.5 medium: 37° C., 500 ml, 250 mg Agent; for Mean pH of medium at 60 minutes (n = 2) / Mean pH of medium at end of experiment (n = 2): pH 6.5 dissolution test; for Mean pH of medium at end of experiment (n = 2): final pH measured after 60 minutes
Procedure: The following test measures dissolution of a composition in a pH 6.5 dissolution medium and simulates the pH environment found in the upper intestine.
The composition to be tested was placed into a 500 ml of a stirred dissolution medium at pH 6.5 at 37° C. (paddle speed 100 rpm). […] A fresh sample of dissolution medium was added after every sampling time point to maintain a constant volume of 500 ml dissolution medium throughout the test.
The vial was then rinsed with a further 50 ml of fresh dissolution medium and the washings added to the main dissolution medium to ensure complete transfer of the composition (total volume of dissolution medium=500 ml).

[2] = pH shift dissolution test (pH 1.5 to 6.5); format: physicochemical; details: for % Agent in Solution t = 2 mins: 2 minutes after adjustment of medium from pH 1.5 to pH 6.5, 37° C.; for % Agent in Solution t = 30 mins: 30 minutes after adjustment of medium from pH 1.5 to pH 6.5, 37° C.; for % Agent in Solution t = 60 mins: 60 minutes after adjustment of medium from pH 1.5 to pH 6.5, 37° C.; for % Agent in Solution t = 0 (˜pH 1.5): % by weight dissolved after 60 minutes in 0.07N HCl/0.2% NaCl medium, 37° C., before pH shift, >100% from HPLC experimental error; for Mean pH of medium at 60 minutes after pH adjustment (n = 2): pH shift test, 60 minutes after adjustment from pH 1.5 to pH 6.5
Procedure: The vial was then rinsed with a further 50 ml of fresh dissolution medium and the washings added to the main dissolution medium to ensure complete transfer of the composition (total volume of medium 500 ml). The Control sample was weighed into a volumetric flask and pre-dissolved in 50 ml of dissolution medium via sonication. The composition was then added to 400 ml of dissolution medium. The flask was rinsed with a further 50 ml of fresh dissolution medium and the washings added to the main dissolution medium to ensure complete transfer of the composition (total volume of medium=500 ml). After 60 minutes at 37° C. (paddle speed 100 rpm) a sample (5 ml) was taken and 5 ml of fresh medium was added to retain a constant volume of dissolution medium.
The resulting solution was then made up to 100 ml with MilliQ water.
Samples (5 ml) were then removed with a plastic syringe at 2, 5, 15, 30, 45 and 60 minutes after pH adjustment and fresh medium (pH 6.5) added to maintain a constant volume of dissolution medium. […] ODS-3^1. (with guard) • detection wavelength: 247 nm • flow rate: 0.9 ml/min • injection volume: 20 μl • retention time: approximately 6 minutes
Footnote: column ex Hichrom containing 3 μm beads.

[3] = system: non-small-cell lung cancer; details: 250 mg/day, non-small-cell lung cancer patients, IDEAL 1 and 2; cited from earlier work
[4] = pKa and pH dependent aqueous solubility of the Agent; format: physicochemical

For COc1cc2ncnc(Nc3ccc(F)c(Cl)c3)c2cc1OCCCN1CCOCC1 [Comparative 4, 4-(3′-chloro4′-fluoroanilino)-7-methoxy-6-(3-morpholinopropoxy)quinazoline], the “% Agent in solution after 5 minutes in pH 6.5 medium” value [1] was 3.52%, the “% Agent in solution after 30 minutes in pH 6.5 medium” value [1] was 1.54% and the “% Agent in solution after 60 minutes in pH 6.5 medium” value (from here on “% Agent in solution after 60 minutes”) [1] was 1.21%. For the same compound, the “% Agent in solution after 60 minutes” value ([1]; listed as Comparative Example 4) was 1.21%, the “Mean pH of medium at 60 minutes (n = 2)” value [1] was 6.33 and the “Mean pH of medium at end of experiment (n = 2)” value [1] was 6.33. For the same compound, the “% Agent in Solution t = 2 mins” value [2] was 19.56%, the “% Agent in Solution t = 30 mins” value [2] was 5.16% and the “% Agent in Solution t = 60 mins” value [2] was 3.30%. The “% Agent in Solution t = 0 (˜pH 1.5)” value [2] was 97.74% and the “Mean pH of medium at 60 minutes after pH adjustment (n = 2)” value [2] was 6.32.
In the case of COc1cc2ncnc(Nc3ccc(F)c(Cl)c3)c2cc1OCCCN1CCOCC1 [Agent, 4-(3′-chloro4′-fluoroanilino)-7-methoxy-6-(3-morpholinopropoxy)quinazoline], the “% Agent in solution after 5 minutes in pH 6.5 medium” value ([1]; listed as Control) is reported as 0.70%, the “% Agent in solution after 30 minutes in pH 6.5 medium” value ([1]; listed as Control) is reported as 1.52% and the “% Agent in solution after 60 minutes” value ([1]; listed as Control) is reported as 1.40%. The “Mean pH of medium at 60 minutes (n = 2)” value ([1]; listed as Control) was 6.52, the “Mean pH of medium at end of experiment (n = 2)” value ([1]; listed as Control) was 6.52 and the adverse events [3] was “majority of adverse events generally being mild to moderate skin and gastrointestinal disorders”. The response rates [3] was 11.8-18.4%, the “Solubility (in words)” value ([4]; free-base form, above pH 7) was “practically insoluble” and the “Solubility (in words)” value ([4]; free-base form, pH 1) was “soluble”. For the same compound, the “Solubility: aqueous solvent required to dissolve 1 g of Agent” value ([4]; free-base form, pH 6) was ≥ 10000 mL, the pKa ([4]; two basic groups) was ~5.3 and the “% Agent in Solution t = 2 mins” value ([2]; listed as Control) was 6.50%. For the same compound, the “% Agent in Solution t = 30 mins” value ([2]; listed as Control) was 3.04%, the “% Agent in Solution t = 60 mins” value ([2]; listed as Control) was 2.27% and the “% Agent in Solution t = 0 (˜pH 1.5)” value ([2]; listed as Control) was 102.61%. The “Mean pH of medium at 60 minutes after pH adjustment (n = 2)” value ([2]; listed as Control) was 6.55.
